Source: patent US11434242B2, “Dopamine-b-hydroxylase inhibitors” (BIAL-PORTELA & Cª, S.A., priority 2017, dated 2022)

Target: T1, Dopamine beta hydroxylase (Homo sapiens, UniProt P09172)
T1 construct: 125 μl of plasma; tissue Instituto Português do Sangue Transplantação; host or cells: human plasma from healthy donors
T1 sequence (P09172 40-617 limits assumed): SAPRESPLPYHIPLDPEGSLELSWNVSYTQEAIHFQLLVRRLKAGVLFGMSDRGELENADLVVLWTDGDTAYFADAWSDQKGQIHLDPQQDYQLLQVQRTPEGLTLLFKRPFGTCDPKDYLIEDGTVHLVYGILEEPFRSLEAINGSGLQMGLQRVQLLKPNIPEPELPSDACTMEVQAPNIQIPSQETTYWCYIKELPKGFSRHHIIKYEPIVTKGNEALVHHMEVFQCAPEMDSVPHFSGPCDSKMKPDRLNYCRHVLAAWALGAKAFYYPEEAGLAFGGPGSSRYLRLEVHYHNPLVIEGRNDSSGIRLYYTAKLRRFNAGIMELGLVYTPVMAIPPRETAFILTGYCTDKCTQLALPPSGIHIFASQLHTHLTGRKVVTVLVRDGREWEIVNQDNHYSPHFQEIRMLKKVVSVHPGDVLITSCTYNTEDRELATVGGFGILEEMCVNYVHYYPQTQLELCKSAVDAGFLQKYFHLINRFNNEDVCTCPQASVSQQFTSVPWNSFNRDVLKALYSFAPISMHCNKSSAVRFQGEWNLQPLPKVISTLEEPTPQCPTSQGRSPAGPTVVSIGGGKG
Test: Dopamine beta hydroxylase activity in human plasma
Assay type: biochemical
Details: for Plasma (0.01 μM), activity in % of control: inhibitor 0.01 μM; for Plasma (0.1 μM), activity in % of control: inhibitor 0.1 μM; for Plasma (1 μM), activity in % of control: inhibitor 1 μM
Procedure, shortened: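 Octopamine production from tyramine over 45 min at 37° C, measured photometrically at 330 nm after SCX extraction and periodate oxidation against an octopamine standard curve, indicates plasma DβH activity. Compounds tested at final 10, 100 and 1000 nM in human plasma, pH 5.0 cofactor buffer, 10 min preincubation; results as % of control.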

Compound	Plasma (0.01 μM), activity in % of control	Plasma (0.1 μM), activity in % of control	Plasma (1 μM), activity in % of control
O=C(Cc1[nH]c(=S)n2c1C[C@@H](c1c(F)ccc(Br)c1F)C2)N1CCSCC1 [Example 137, (S)-2-(6-(3-bromo-2,6-difluorophenyl)-3-thioxo-2,5,6,7-tetrahydro-3H-pyrrolo[1,2-c]imidazol-1-yl)-1-thiomorpholinoethan-1-one]	72.9 % of control	21.5 % of control	
Cn1c(CCC(=O)N2CCOCC2)c2n(c1=S)C[C@@H](c1c(F)ccc(F)c1F)C2 [Example 266, (R)-3-(2-methyl-3-thioxo-6-(2,3,6-trifluorophenyl)-2,5,6,7-tetrahydro-3H-pyrrolo[1,2-c]imidazol-1-yl)-1-morpholinopropan-1-one]	85.3 % of control	56.0 % of control	
Fc1ccc(Br)cc1[C@]12C[C@H]1c1c(CCNCC(F)(F)F)[nH]c(=S)n1C2 [Example 180, (5aS,6aR)-5a-(5-bromo-2-fluorophenyl)-1-(2-((2,2,2-trifluoroethyl)amino)ethyl)-5,5a,6,6a-tetrahydrocyclopropa[3,4]pyrrolo[1,2-c]imidazole-3(2H)-thione]	99.2 % of control	22.3 % of control	
CN(C(=O)Cc1[nH]c(=S)n2c1C[C@@H](c1c(F)ccc(Br)c1F)C2)C1COC1 [Example 408, (S)-2-(6-(3-bromo-2,6-difluorophenyl)-3-thioxo-2,5,6,7-tetrahydro-3H-pyrrolo[1,2-c]imidazol-1-yl)-N-methyl-N-(oxetan-3-yl)acetamide]	77.0 % of control	14.7 % of control	
Cn1c(CC(=O)Nc2cnsc2)c2n(c1=S)C[C@@H](c1c(F)ccc(F)c1F)C2 [Example 351, (R)—N-(isothiazol-4-yl)-2-(2-methyl-3-thioxo-6-(2,3,6-trifluorophenyl)-2,5,6,7-tetrahydro-3H-pyrrolo[1,2-c]imidazol-1-yl)acetamide]	46.2 % of control	16.5 % of control	
Cn1c(CC(=O)N2CCS(=O)(=O)CC2)c2n(c1=S)C[C@H](c1c(F)ccc(Br)c1F)C2 [Example 235, (S)-2-(6-(3-bromo-2,6-difluorophenyl)-2-methyl-3-thioxo-2,5,6,7-tetrahydro-3H-pyrrolo[1,2-c]imidazol-1-yl)-1-(1,1-dioxidothiomorpholino)ethan-1-one]	11.4 % of control	1.2 % of control	
O=C(O)Cc1[nH]c(=S)n2c1C[C@H](c1cc(F)ccc1F)C2 [Example 14, (R)-2-(6-(2,5-difluorophenyl)-3-thioxo-2,5,6,7-tetrahydro-3H-pyrrolo[1,2-c]imidazol-1-yl)acetic Acid]		92.8 % of control	45.6 % of control
Cn1c(CC(=O)NC2COC2)c2n(c1=S)C[C@@]1(c3c(F)ccc(Cl)c3F)C[C@@H]21 [Example 400, 2-((5aS,6aR)-5a-(3-chloro-2,6-difluorophenyl)-2-methyl-3-thioxo-2,3,5,5a,6,6a-hexahydrocyclopropa[3,4]pyrrolo[1,2-c]imidazol-1-yl)-N-(oxetan-3-yl)acetamide]	31.9 % of control	7.3 % of control	
Cn1c(CC(=O)N2CCNCC2)c2n(c1=S)C[C@@]1(c3cc(Cl)ccc3F)C[C@@H]21 [Example 320, 2-((5aS,6aR)-5a-(5-chloro-2-fluorophenyl)-2-methyl-3-thioxo-2,3,5,5a,6,6a-hexahydrocyclopropa[3,4]pyrrolo[1,2-c]imidazol-1-yl)-1-(piperazin-1-yl)ethan-1-one]	90.3 % of control	31.1 % of control	
O=C(Cc1[nH]c(=S)n2c1[C@@H]1C[C@]1(c1cc(Br)ccc1F)C2)N1CCN(c2ccccn2)CC1 [Example 147, 2-((5aS,6aR)-5a-(5-bromo-2-fluorophenyl)-3-thioxo-2,3,5,5a,6,6a-hexahydrocyclopropa[3,4]pyrrolo[1,2-c]imidazol-1-yl)-1-(4-(pyridin-2-yl)piperazin-1-yl)ethan-1-one]		29.0 % of control	2.4 % of control
Cn1c(CC(=O)NC2CCOCC2)c2n(c1=S)C[C@@H](c1c(F)c(F)cc(F)c1F)C2 [Example 297, (R)-2-(2-methyl-6-(2,3,5,6-tetrafluorophenyl)-3-thioxo-2,5,6,7-tetrahydro-3H-pyrrolo[1,2-c]imidazol-1-yl)-N-(tetrahydro-2H-pyran-4-yl)acetamide]	78.7 % of control	35.4 % of control	
CN(C(=O)Cc1c2n(c(=S)n1C)C[C@@H](c1c(F)ccc(F)c1F)C2)C1CCOCC1 [Example 372, (R)—N-methyl-2-(2-methyl-3-thioxo-6-(2,3,6-trifluorophenyl)-2,5,6,7-tetrahydro-3H-pyrrolo[1,2-c]imidazol-1-yl)-N-(tetrahydro-2H-pyran-4-yl)acetamide]	93.4 % of control	32.0 % of control	
CNCCc1[nH]c(=S)n2c1C[C@@H](c1c(F)ccc(Cl)c1F)C2.Cl [Example 193, (S)-6-(3-chloro-2,6-difluorophenyl)-1-(2-(methylamino)ethyl)-2,5,6,7-tetrahydro-3H-pyrrolo[1,2-c]imidazole-3-thione Hydrochloride]	86.0 % of control	46.3 % of control	
O=C(Cc1[nH]c(=S)n2c1C[C@@H](c1c(F)ccc(Br)c1F)C2)N1CCCC1 [Example 101, (S)-2-(6-(3-bromo-2,6-difluorophenyl)-3-thioxo-2,5,6,7-tetrahydro-3H-pyrrolo[1,2-c]imidazol-1-yl)-1-(pyrrolidin-1-yl)ethan-1-one]		37.2 % of control	3.3 % of control
O=C(Cc1[nH]c(=S)n2c1C[C@@H](c1c(F)ccc(Br)c1F)C2)N1CCOCC1 [Example 140, (S)-2-(6-(3-bromo-2,6-difluorophenyl)-3-thioxo-2,5,6,7-tetrahydro-3H-pyrrolo[1,2-c]imidazol-1-yl)-1-morpholinoethan-1-one]	73.1 % of control	26.8 % of control	
[2H]C([2H])([2H])n1c(CC(=O)O)c2n(c1=S)C[C@@]1(c3cc(Br)ccc3F)C[C@@H]21 [Example 462, 2-((5aS,6aR)-5a-(5-bromo-2-fluorophenyl)-2-(methyl-d)-3-thioxo-2,3,5,5a,6,6a-hexahydrocyclopropa[3,4]pyrrolo[1,2-c]imidazol-1-yl)acetic Acid]	50.2 % of control	10.3 % of control	
CCOC(=O)Cc1[nH]c(=S)n2c1C[C@H](c1c(F)c(F)cc(F)c1F)C2 [Example 63, Ethyl (R)-2-(6-(2,3,5,6-tetrafluorophenyl)-3-thioxo-2,5,6,7-tetrahydro-3H-pyrrolo[1,2-c]imidazol-1-yl)acetate]		58.3 % of control	11.9 % of control
